Reference: patent US8765730B2 (Hoffmann-La Roche Inc, priority 2010, dated 2014)
Read-outs that look alike come from different tables or passages of the source.

Target: T1, human GPBAR1 receptor (Homo sapiens, UniProt Q8TDU6)
T1 construct: expressed in transfected cells
T1 sequence (Q8TDU6 1-330): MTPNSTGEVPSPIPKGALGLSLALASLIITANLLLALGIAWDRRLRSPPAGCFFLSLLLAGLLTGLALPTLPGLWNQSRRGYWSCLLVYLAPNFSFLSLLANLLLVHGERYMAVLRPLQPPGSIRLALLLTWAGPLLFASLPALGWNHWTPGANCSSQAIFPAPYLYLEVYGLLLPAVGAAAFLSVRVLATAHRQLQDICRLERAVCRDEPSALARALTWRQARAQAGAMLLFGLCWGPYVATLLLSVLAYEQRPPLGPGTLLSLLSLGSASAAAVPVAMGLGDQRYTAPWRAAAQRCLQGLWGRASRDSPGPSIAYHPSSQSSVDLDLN
Test: functional cAMP assay in CHO-dhfr(minus) cells expressing human GPBAR1 receptors
Assay type: cell-based
Details: 30 min at 30° C.
Outline: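 Agonist cAMP read-out: stable GPBAR1 CHO-dhfr− clone, 30 min compound exposure at 30° C following 30 min IBMX (1 mM) preincubation in Krebs Ringer bicarbonate. Time-resolved energy-transfer detection gives EC50; parental CHO cells serve as counter-screen.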

[1] = human EC50, functional cAMP assay

| Compound | EC50 [1] | EC50 (functional cAMP assay, read-out: human EC50) |
| --- | --- | --- |
| COCCn1cc(/C(CC(c2ccc(S(C)(=O)=O)cc2)c2ccc(Cl)cc2C)=N/O)ccc1=O (stereo not shown) [Example 341, (E)-5-(3-(4-Chloro-2-methylphenyl)-1-(hydroxyimino)-3-(4-(methylsulfonyl)phenyl)-propyl)-1-(2-methoxyethyl)pyridin-2(1H)-one] | 0.164 µM |  |
| Cc1cc(/C(C[C@H](c2ccc(N[C@H]3C[C@@H](C(=O)O)C3)cc2)c2ccccc2C)=N/O)ccn1 [Example 300, 3-{4-[(R)-3-[(E)-Hydroxyimino]-3-(2-methyl-pyridin-4-yl)-1-o-tolyl-propyl]-phenylamino}-cyclobutanecarboxylic acid] | 0.055 µM |  |
| Cc1cc(/C(C[C@H](c2ccc(Br)cc2)c2ccc(Cl)cc2C)=N/O)ccn1 [Example 386, (R,E)-3-(4-bromophenyl)-3-(4-chloro-2-methylphenyl)-1-(2-methylpyridin-4-yl)propan-1-one oxime] | 0.169 µM |  |
| Cc1cc(Cl)ccc1C(C/C(=N\O)c1ccc(=O)n(C)c1)c1ccc(Oc2ccc(F)c(C(=O)O)c2)cc1 (stereo not shown) [Example 348, 5-{4-[1-(4-Chloro-2-methyl-phenyl)-3-[(E)-hydroxyimino]-3-(1-methyl-6-oxo-1,6-dihydro-pyridin-3-yl)-propyl]-phenoxy}-2-fluoro-benzoic acid] | 0.071 µM |  |
| CC(C)CC(C/C(=N/O)c1ccc(=O)n(C)c1)c1ccc(Br)cc1 (stereo not shown) [Example 171, 5-{3-(4-Bromo-phenyl)-1-[(Z)-hydroxyimino]-5-methyl-hexyl}-1-methyl-1H-pyridin-2-one] | 4 µM |  |
| Cc1cc(/C(CC(c2ccc(C(=O)NC(C)(C)CO)cc2)c2ccc(F)cc2F)=N/O)ccn1 (stereo not shown) [Example 435, 4-[1-(2,4-Difluoro-phenyl)-3-[(E)-hydroxyimino]-3-(2-methyl-pyridin-4-yl)-propyl]-N-(2-hydroxy-1,1-dimethyl-ethyl)-benzamide] | 0.066 µM |  |
| Cc1cc(/C(C[C@H](c2ccc(C3CCNCC3)cc2)c2ccc(Cl)cc2C)=N/O)ccn1 [Example 388, (R,E)-3-(4-chloro-2-methylphenyl)-1-(2-methylpyridin-4-yl)-3-(4-(piperidin-4-yl)phenyl)propan-1-one oxime] | 0.172 µM |  |
| Cn1cc(/C(CC(c2ccc(C(=O)N[C@H]3CC[C@H](C(=O)O)CC3)c(F)c2)c2ccccc2Cl)=N/O)ccc1=O (stereo partly drawn) [Example 231, Trans-4-{4-[1-(2-Chloro-phenyl)-3-[(E)-hydroxyimino]-3-(1-methyl-6-oxo-1,6-dihydro-pyridin-3-yl)-propyl]-2-fluoro-benzoylamino}-cyclohexanecarboxylic acid] | 0.283 µM |  |
| Cc1ccccc1C(C/C(=N/O)c1ccncc1)c1ccc(-c2cncnc2)cc1 (single isomer, unassigned; (-)) [Example 37, (−)-(Z)-1-pyridin-4-yl-3-(4-pyrimidin-5-yl-phenyl)-3-o-tolyl-propan-1-one oxime] | 2.2 µM |  |
| CS(=O)(=O)c1cccc(-c2ccc(C(C/C(=N\O)c3ccncc3)c3ccccc3)cc2)c1 (stereo not shown) [Example 19, (E)-3-(3′-Methanesulfonyl-biphenyl-4-yl)-3-phenyl-1-pyridin-4-yl-propan-1-one oxime] |  | 0.355 µM |
| Cc1cc(C(=O)O)ccc1-c1ccc(C(C/C(=N\O)c2ccc(=O)n(C)c2)c2ccc(Cl)cc2Cl)cc1 (single isomer, unassigned) [Example 478, 4′-[(+)-1-(2,4-dichloro-phenyl)-3-[(E)-hydroxyimino]-3-(1-methyl-6-oxo-1,6-dihydro-pyridin-3-yl)-propyl]-2-methyl-biphenyl-4-carboxylic acid] | 0.375 µM |  |
| Cc1ccccc1[C@@H](C/C(=N\O)c1cnc(=O)n(C)c1)c1ccc(S(C)(=O)=O)cc1 [Example 502, (S,E)-5-(1-(Hydroxyimino)-3-(4-(methylsulfonyl)phenyl)-3-o-tolylpropyl)-1-methyl-pyrimidin-2(1H)-one] | 0.477 µM |  |
| Cc1cc(/C(C[C@@H](c2ccccc2)c2ccc(Cl)cc2C)=N/O)ccn1 [Example 390, (S)-3-(4-Chloro-2-methyl-phenyl)-1-(2-methyl-pyridin-4-yl)-3-phenyl-propan-1-one oxime] | 0.053 µM |  |
| CCCC(C/C(=N\O)c1ccc(=O)n(C)c1)c1ccc(Br)cc1 (stereo not shown) [Example 174, 5-{3-(4-Bromo-phenyl)-1-[(E)-hydroxyimino]-hexyl}-1-methyl-1H-pyridin-2-one] | 0.268 µM |  |
| Cc1ccccc1C(C/C(=N\O)c1ccc(=O)n(C)c1)c1ccc(C(=O)N(C)CC(=O)O)cc1 (stereo not shown) [Example 211, ({4-[3-[(E)-Hydroxyimino]-3-(1-methyl-6-oxo-1,6-dihydro-pyridin-3-yl)-1-o-tolyl-propyl]-benzoyl}-methyl-amino)-acetic acid] | 5.98 µM |  |
| Cn1cc(/C(CC(c2ccc(-c3c[nH]c(=O)[nH]c3=O)cc2)c2ccc(Cl)cc2F)=N/O)ccc1=O (stereo not shown) [Example 471, 5-{4-[1-(4-Chloro-2-fluoro-phenyl)-3-[(E)-hydroxyimino]-3-(1-methyl-6-oxo-1,6-dihydro-pyridin-3-yl)-propyl]-phenyl}-1H-pyrimidine-2,4-dione] | 0.17 µM |  |
| Cc1ccccc1C(CC(=NO)c1ccncc1)c1cccc(-c2cccc(S(C)(=O)=O)c2)c1 (racemic) [Example 30, 3-(3′-Methanesulfonyl-biphenyl-3-yl)-1-pyridin-4-yl-3-o-tolyl-propan-1-one oxime] | 0.181 µM |  |
| Cc1ccccc1C(C/C(=N\O)c1cc(Cl)ccc1Cl)c1ccc(Br)cc1 (single isomer, unassigned; (-)) [Example 51, (−)-(E)-3-(4-bromo-phenyl)-1-(2,5-dichloro-phenyl)-3-o-tolyl-propan-1-one oxime] | 0.933 µM |  |
| Cc1cc(/C(CC(c2ccc(C(=O)NC3CC3)cc2)c2ccc(F)cc2F)=N/O)ccn1 (stereo not shown) [Example 432, N-Cyclopropyl-4-[1-(2,4-difluoro-phenyl)-3-[(E)-hydroxyimino]-3-(2-methyl-pyridin-4-yl)-propyl]-benzamide] | 0.057 µM |  |

Continued, values first:

| EC50 [1] | EC50 (functional cAMP assay, read-out: human EC50) | Compound |
| --- | --- | --- |
| 0.001 µM |  | Cc1cc(/C(C[C@H](c2ccc(-c3cncnc3)cc2)c2ccccc2C)=N/O)ccn1 [Example 143, (E,R)-1-(2-Methyl-pyridin-4-yl)-3-(4-pyrimidin-5-yl-phenyl)-3-o-tolyl-propan-1-one oxime] |
| 0.038 µM |  | Cc1cc(/C(CC(c2ccc(N3CCN(S(C)(=O)=O)CC3)cc2)c2ccccc2C(F)(F)F)=N/O)ccn1 (stereo not shown) [Example 137, (E)-3-[4-(4-Methanesulfonyl-piperazin-1-yl)-phenyl]-1-(2-methyl-pyridin-4-yl)-3-(2-trifluoromethyl-phenyl)-propan-1-one oxime] |
| 0.012 µM |  | CCOC(=O)C1CCN(c2ccc([C@@H](C/C(=N\O)c3ccnc(C)c3)c3ccccc3C)cc2)CC1 [Example 265, 1-{4-[(R)-3-[(E)-Hydroxyimino]-3-(2-methyl-pyridin-4-yl)-1-o-tolyl-propyl]-phenyl}-piperidine-4-carboxylic acid ethyl ester] |
| 0.007 µM |  | Cc1cc(C(CC(c2ccc(-c3ccc(C(=O)NCCC(=O)O)cc3)cc2)c2ccccc2C)=NO)ccn1 (racemic) [Example 89, 3-({4′-[3-[Hydroxyimino]-3-(2-methyl-pyridin-4-yl)-1-o-tolyl-propyl]-biphenyl-4-carbonyl}-amino)-propionic acid] |
| 0.023 µM |  | Cn1cc(/C(CC(c2ccc(-c3ccc(C(=O)O)cc3)cc2)c2ccc(Cl)cc2F)=N/O)ccc1=O (stereo not shown) [Example 238, 4′-[1-(4-Chloro-2-fluoro-phenyl)-3-[(E)-hydroxyimino]-3-(1-methyl-6-oxo-1,6-dihydro-pyridin-3-yl)-propyl]-biphenyl-4-carboxylic acid] |
| 0.043 µM |  | Cn1cc(/C(CC(c2ccc(-c3ccc(C(=O)O)c(F)c3)cc2)c2ccc(Cl)cc2Cl)=N/O)ccc1=O (single isomer, unassigned) [Example 474, 4′-[(−)-1-(2,4-Dichloro-phenyl)-3-[(E)-hydroxyimino]-3-(1-methyl-6-oxo-1,6-dihydro-pyridin-3-yl)-propyl]-3-fluoro-biphenyl-4-carboxylic acid] |
| 0.027 µM |  | Cc1cc(C(CC(c2ccc(C#CCCC(=O)O)cc2)c2ccccc2C)=NO)ccn1 (racemic) [Example 111, 5-{4-[3-[Hydroxyimino]-3-(2-methyl-pyridin-4-yl)-1-o-tolyl-propyl]-phenyl}-pent-4-ynoic acid] |
| 0.018 µM |  | Cc1cc(/C(C[C@H](c2ccc([C@H]3CC[C@@H](C(=O)O)CC3)cc2)c2ccccc2C)=N/O)ccn1 [Example 492, cis-4-{4-[(R)-3-[(E)-hydroxyimino]-3-(2-methyl-pyridin-4-yl)-1-o-tolyl-propyl]-phenyl}-cyclohexanecarboxylic acid] |
| 0.013 µM |  | Cn1cc(/C(CC(c2ccc(F)cc2)c2ccc(Br)cc2)=N/O)ccc1=O (stereo not shown) [Example 479, 5-{3-(4-Bromo-phenyl)-3-(4-fluoro-phenyl)-1-[(E)-hydroxyimino]-propyl}-1-methyl-1H-pyridin-2-one] |
| 0.014 µM |  | Cc1cc(/C(C[C@H](c2ccc(C3=CCN(S(C)(=O)=O)CC3)cc2)c2ccccc2C)=N/O)ccn1 [Example 376, (R,E)-1-(2-Methylpyridin-4-yl)-3-(4-(1-(methylsulfonyl)-1,2,3,6-tetrahydropyridin-4-yl)phenyl)-3-o-tolylpropan-1-one oxime] |
| 0.002 µM |  | Cc1cc(/C(C[C@H](c2ccc(N3CCOCC3)cc2)c2ccccc2C)=N/O)ccn1 [Example 264, (E,R)-1-(2-Methyl-pyridin-4-yl)-3-(4-morpholin-4-yl-phenyl)-3-o-tolyl-propan-1-one oxime] |
| 0.052 µM |  | O/N=C(\CC(c1ccccc1)c1ccccc1)c1ccncc1 [Example 14, (E)-3,3-Diphenyl-1-pyridin-4-yl-propan-1-one oxime] |
